Test results taken from US20230391760A1, “HETEROCYCLIC GLP-1 AGONISTS” (Gasherbrum Bio, Inc., priority 2020, published 2023).

Molecular target: GLP-1 Receptor (Homo sapiens, UniProt P43220)
Test: GLP-1R agonist cAMP stimulation assay (HEK293/GLP1R/CRE-LUC cells, cAMP dynamic 2 Kit)
Format: cell-based
Details: HEK293/CRE-Luc cell line stably expressing the GLP-1 Receptor, 30 min at 37° C.
How it was run: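 HEK293 cells stably expressing human GLP-1R with CRE-luciferase, 1000 cells/well in DPBS with 0.5 mM IBMX and 0.1% BSA, treated with compound in 1/2-log serial dilution for 30 min at 37 °C. cAMP then detected by HTRF (cAMP-d2 plus anti-cAMP cryptate), 1 h at room temperature in the dark.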

Chain of GLP-1 Receptor (P43220 24-463, species assumed): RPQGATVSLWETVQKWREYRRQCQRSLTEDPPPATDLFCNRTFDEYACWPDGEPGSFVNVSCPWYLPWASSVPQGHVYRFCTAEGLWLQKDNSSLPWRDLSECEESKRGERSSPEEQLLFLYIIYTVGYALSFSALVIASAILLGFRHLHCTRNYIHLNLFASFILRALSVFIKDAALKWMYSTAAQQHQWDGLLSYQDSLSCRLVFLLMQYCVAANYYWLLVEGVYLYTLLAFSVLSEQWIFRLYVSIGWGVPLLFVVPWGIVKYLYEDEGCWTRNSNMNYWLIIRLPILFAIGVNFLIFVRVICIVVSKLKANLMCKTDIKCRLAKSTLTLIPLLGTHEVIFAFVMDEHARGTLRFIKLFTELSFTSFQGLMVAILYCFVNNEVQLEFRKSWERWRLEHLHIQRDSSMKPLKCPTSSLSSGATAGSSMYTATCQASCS

Row | EC50 | Structure (SMILES)
1 | 0.12 nM | Fc1cc(Cl)ccc1C1COc2cccc(C3CCN(Cc4nc5cc(-c6nnc(C(F)(F)F)[nH]6)ncc5n4C[C@@H]4CCO4)CC3)c2O1 (stereo partly drawn) [Compound 457a, 4-[3-(4-chloro-2-fluorophenyl)-2,3-dihydro-1,4-benzodioxin-5-yl]-1-[(3-{[(2S)-oxetan-2-yl]methyl}-6-[5-(trifluoromethyl)-4H-1,2,4-triazol-3-yl]-3H-imidazo[4,5-c]pyridin-2-yl)methyl]piperidine]
2 | 0.43 nM | CCc1nnc(-c2cnc3c(c2)nc(CN2CCC(c4cccc5c4O[C@@](C)(c4ccc(Cl)cc4F)O5)CC2)n3C[C@@H]2CCO2)[nH]1 [Compound 352a, 4-[(2S)-2-(4-chloro-2-fluorophenyl)-2-methyl-2H-1,3-benzodioxol-4-yl]-1-{[6-(5-ethyl-4H-1,2,4-triazol-3-yl)-3-{[(2S)-oxetan-2-yl]methyl}-3H-imidazo[4,5-b]pyridin-2-yl]methyl}piperidine]
3 | 0.51 nM | CC1(c2ccc(Cl)cc2F)Oc2cccc(C3CCN(Cc4nc5cc(C(=O)O)ccc5n4C[C@@H]4CCO4)CC3)c2O1 (stereo partly drawn) [Compound 161a, 2-((4-(2-(4-chloro-2-fluorophenyl)-2-methylbenzo[d][1,3]dioxol-4-yl)piperidin-1-yl)methyl)-1-(((S)-oxetan-2-yl)methyl)-1H-benzo[d]imidazole-5-carboxylic acid]
4 | 0.012 nM | N#Cc1ccc(COc2cccc(C3CCN(Cc4nc5cc(-c6nnc(C(F)(F)F)[nH]6)ncc5n4C[C@@H]4CCO4)CC3)n2)c(F)c1 [Compound 313a, 3-fluoro-4-{[(6-{1-[(3-{[(2S)-oxetan-2-yl]methyl}-6-[5-(trifluoromethyl)-4H-1,2,4-triazol-3-yl]-3H-imidazo[4,5-c]pyridin-2-yl)methyl]piperidin-4-yl}pyridin-2-yl)oxy]methyl}benzonitrile]
5 | 0.0088 nM | CC1(c2ccc(Cl)cc2F)Oc2c(F)ccc(C3CCN(Cc4nc5cc(-c6nnc(C(F)(F)F)[nH]6)ncc5n4C[C@@H]4CCO4)CC3)c2O1 (stereo partly drawn) [Compound 459a, 4-[2-(4-chloro-2-fluorophenyl)-7-fluoro-2-methyl-2H-1,3-benzodioxol-4-yl]-1-[(3-{[(2S)-oxetan-2-yl]methyl}-6-[5-(trifluoromethyl)-4H-1,2,4-triazol-3-yl]-3H-imidazo[4,5-c]pyridin-2-yl)methyl]piperidine]
6 | 0.22 nM | Fc1cc(Cl)ccc1COc1cc(C2CCN(Cc3nc4cc(-c5nnc(C(F)(F)F)[nH]5)ncc4n3C[C@@H]3CCO3)CC2)ccc1F [Compound 470a, 4-{3-[(4-chloro-2-fluorophenyl)methoxy]-4-fluorophenyl}-1-[(3-{[(2S)-oxetan-2-yl]methyl}-6-[5-(trifluoromethyl)-4H-1,2,4-triazol-3-yl]-3H-imidazo[4,5-c]pyridin-2-yl)methyl]piperidine]
7 | 5.9 nM | COCCOc1ccc(C(=O)Nc2ccc3c(c2)nc(CN2CCC(c4cccc(OCc5ccc(Cl)cc5F)n4)CC2)n3C[C@@H]2CCO2)cn1 [Compound 177a, N-{2-[(4-{6-[(4-chloro-2-fluorophenyl)methoxy]pyridin-2-yl}piperidin-1-yl)methyl]-1-{[(2S)-oxetan-2-yl]methyl}-1H-1,3-benzodiazol-5-yl}-6-(2-methoxyethoxy)pyridine-3-carboxamide]
8 | 0.14 nM | C[C@H]1CN(c2ncc(F)c(OCc3ccc(Cl)cc3F)n2)CCN1Cc1nc2cc(-c3nnc(C(F)(F)F)[nH]3)nnc2n1C[C@@H]1CCO1 [Compound 512a, 4-[(4-chloro-2-fluorophenyl)methoxy]-5-fluoro-2-[(3S)-3-methyl-4-[(7-{[(2S)-oxetan-2-yl]methyl}-3-[5-(trifluoromethyl)-4H-1,2,4-triazol-3-yl]-7H-imidazo[4,5-c]pyridazin-6-yl)methyl]piperazin-1-yl]pyrimidine]
9 | 0.24 nM | CC1(c2ccc(Cl)cc2)Oc2cccc(C3=CCN(Cc4nc5cc(-c6nnc(C(F)(F)F)[nH]6)ccc5n4C[C@@H]4CCO4)CC3)c2O1 (stereo partly drawn) [Compound 255a, 2-({4-[2-(4-chlorophenyl)-2-methyl-2H-1,3-benzodioxol-4-yl]-1,2,3,6-tetrahydropyridin-1-yl}methyl)-1-{[(2S)-oxetan-2-yl]methyl}-5-[5-(trifluoromethyl)-4H-1,2,4-triazol-3-yl]-1H-1,3-benzodiazole]
10 | 0.14 nM | CC1(c2ccc(Cl)cc2F)Oc2cccc(C3CCN(Cc4nc5cc(-c6nnc(C(F)F)[nH]6)cnc5n4C[C@@H]4CCO4)CC3)c2O1 (stereo partly drawn) [Compound 244a, 4-[2-(4-chloro-2-fluorophenyl)-2-methyl-2H-1,3-benzodioxol-4-yl]-1-({6-[5-(difluoromethyl)-4H-1,2,4-triazol-3-yl]-3-{[(2S)-oxetan-2-yl]methyl}-3H-imidazo[4,5-b]pyridin-2-yl}methyl)piperidine]
11 | 12 nM | CC1OC2(C(=O)Nc3ccc4c(c3)nc(CN3CCC(c5cccc(OCc6ccc(Cl)cc6F)n5)CC3)n4C[C@@H]3CCO3)CCC1CC2 (stereo partly drawn) [Compound 198a, N-{2-[(4-{6-[(4-chloro-2-fluorophenyl)methoxy]pyridin-2-yl}piperidin-1-yl)methyl]-1-{[(2S)-oxetan-2-yl]methyl}-1H-1,3-benzodiazol-5-yl}-3-methyl-2-oxabicyclo[2.2.2]octane-1-carboxamide]
12 | 0.022 nM | CC1(c2ccc(Cl)cc2)Oc2cccc(C3CCN(Cc4nc5cc(-c6noc(=O)[nH]6)ncc5n4C[C@@H]4CCO4)CC3)c2O1 (stereo partly drawn) [Compound 347a, 3-[2-({4-[2-(4-chlorophenyl)-2-methyl-2H-1,3-benzodioxol-4-yl]piperidin-1-yl}methyl)-3-{[(2S)-oxetan-2-yl]methyl}-3H-imidazo[4,5-c]pyridin-6-yl]-4,5-dihydro-1,2,4-oxadiazol-5-one]
13 | 0.98 nM | Cc1nnc(-c2cc3nc(CN4CCC(c5cccc6c5O[C@@](C)(c5ccc(Cl)cn5)O6)CC4)n(C[C@@H]4CCO4)c3nn2)[nH]1 [Compound 477a, 5-chloro-2-[(2S)-2-methyl-4-(1-{[3-(5-methyl-4H-1,2,4-triazol-3-yl)-7-{[(2S)-oxetan-2-yl]methyl}-7H-imidazo[4,5-c]pyridazin-6-yl]methyl}piperidin-4-yl)-2H-1,3-benzodioxol-2-yl]pyridine]
14 | 10 nM | N#Cc1ccc(COc2cccc(C3=CCN(Cc4nc5cc(-c6noc(=O)[nH]6)cnc5n4C[C@@H]4CCO4)CC3)c2)c(F)c1 [Compound 318a, 3-fluoro-4-[(3-{1-[(3-{[(2S)-oxetan-2-yl]methyl}-6-(5-oxo-4,5-dihydro-1,2,4-oxadiazol-3-yl)-3H-imidazo[4,5-b]pyridin-2-yl)methyl]-1,2,3,6-tetrahydropyridin-4-yl}phenoxy)methyl]benzonitrile]
15 | 0.037 nM | O=c1[nH]c(-c2cc3nc(CN4CCC(c5cccc(OCc6ccc(Cl)cc6F)n5)CC4)n(C[C@@H]4CCO4)c3cn2)no1 [Compound 316a, 3-{2-[(4-{6-[(4-chloro-2-fluorophenyl)methoxy]pyridin-2-yl}piperidin-1-yl)methyl]-3-{[(2S)-oxetan-2-yl]methyl}-3H-imidazo[4,5-c]pyridin-6-yl}-4,5-dihydro-1,2,4-oxadiazol-5-one]
16 | 0.095 nM | CO[C@H](C)Cn1c(CN2CCC(c3cccc4c3O[C@@](C)(c3ccc(Cl)cc3F)O4)CC2)nc2cc(-c3nnc(C(F)(F)F)[nH]3)ncc21 [Compound 418a, 4-[(2S)-2-(4-chloro-2-fluorophenyl)-2-methyl-2H-1,3-benzodioxol-4-yl]-1-({3-[(2R)-2-methoxypropyl]-6-[5-(trifluoromethyl)-4H-1,2,4-triazol-3-yl]-3H-imidazo[4,5-c]pyridin-2-yl}methyl)piperidine]
17 | 0.539 nM | CCC(=O)Nc1ccc2c(c1)nc(CN1CCC(c3cccc(OCc4ccc(Cl)cc4F)n3)CC1)n2C[C@@H]1CCO1 [Compound 102a, (S)—N-(2-((4-(6-((4-chloro-2-fluorobenzyl)oxy)pyridin-2-yl)piperidin-1-yl)methyl)-1-(oxetan-2-ylmethyl)-1H-benzo[d]imidazol-5-yl)propionamide]
18 | 0.092 nM | Fc1cc(Cl)ccc1COc1nc(C2CCN(Cc3nc4cc(-c5nnc(C(F)(F)F)[nH]5)cnc4n3C[C@@H]3CCO3)CC2)ncc1F [Compound 504a, 4-[(4-chloro-2-fluorophenyl)methoxy]-5-fluoro-2-{1-[(3-{[(2S)-oxetan-2-yl]methyl}-6-[5-(trifluoromethyl)-4H-1,2,4-triazol-3-yl]-3H-imidazo[4,5-b]pyridin-2-yl)methyl]piperidin-4-yl}pyrimidine]
19 | 6.9 nM | C[C@]1(c2ccc(Cl)cc2F)Oc2cccc(C3CCN(Cc4nc5cc(C(N)=O)nnc5n4C[C@@H]4CCO4)CC3)c2O1 [Compound 432a, 6-({4-[(2S)-2-(4-chloro-2-fluorophenyl)-2-methyl-2H-1,3-benzodioxol-4-yl]piperidin-1-yl}methyl)-7-{[(2S)-oxetan-2-yl]methyl}-7H-imidazo[4,5-c]pyridazine-3-carboxamide]
20 | 0.099 nM | Fc1cc(C2CC2)ccc1COc1cccc(C2CCN(Cc3nc4cc(-c5nnc(C(F)(F)F)[nH]5)ncc4n3C[C@@H]3CCO3)CC2)n1 [Compound 498a, 2-[(4-cyclopropyl-2-fluorophenyl)methoxy]-6-{1-[(3-{[(2S)-oxetan-2-yl]methyl}-6-[5-(trifluoromethyl)-4H-1,2,4-triazol-3-yl]-3H-imidazo[4,5-c]pyridin-2-yl)methyl]piperidin-4-yl}pyridine]
21 | 0.37 nM | O=c1[nH]c(-c2cnc3c(c2)nc(CN2CCC(c4cccc(OCc5ccc(Cl)cc5F)n4)CC2)n3C[C@@H]2CCO2)no1 [Compound 328a, 3-{2-[(4-{6-[(4-chloro-2-fluorophenyl)methoxy]pyridin-2-yl}piperidin-1-yl)methyl]-3-{[(2S)-oxetan-2-yl]methyl}-3H-imidazo[4,5-b]pyridin-6-yl}-4,5-dihydro-1,2,4-oxadiazol-5-one]
22 | 0.34 nM | Fc1cc(Cl)ccc1COc1cc(C2CCN(Cc3nc4cc(-c5nnc(C(F)(F)F)[nH]5)nnc4n3C[C@@H]3CCO3)CC2)ccc1F [Compound 520a, 4-{3-[(4-chloro-2-fluorophenyl)methoxy]-4-fluorophenyl}-1-[(7-{[(2S)-oxetan-2-yl]methyl}-3-[5-(trifluoromethyl)-4H-1,2,4-triazol-3-yl]-7H-imidazo[4,5-c]pyridazin-6-yl)methyl]piperidine]
